Values quoted from earlier work, collected in patent US9452976B2, “Pactamycin analogs and methods of making thereof” (Oregon State University, priority 2007, dated 2016).

Tests used:
[1] = system: Gram-positive and Gram-negative bacteria
[2] = reason clinical application was abandoned
[3] = system: tumor

CC(=O)c1cccc(N[C@H]2[C@H](N)[C@@](NC(=O)N(C)C)([C@H](C)O)[C@@](C)(O)[C@@]2(O)COC(=O)c2c(C)cccc2O)c1 [Pactamycin, pactamycin]
antibacterial activities against Gram-positive and Gram-negative bacteria ([1]; Bhuyan, Appl. Microbiol. 1962): potent antibacterial activities
toxicity [2]: high toxicity
anti-tumor activity [3]: strong anti-tumor activity

CC[C@]1(NC(=O)N(C)C)[C@@H](N)[C@H](Nc2cccc(C(C)=O)c2)[C@](O)(COC(=O)c2c(C)cccc2O)[C@]1(C)O [7-Deoxypactamycin, 7-deoxypactamycin]
activity against a number of Gram-positive and Gram-negative bacteria, compared with pactamycin ([1]; relative to pactamycin): equally active

CC(=O)c1cccc(N[C@H]2[C@H](N)[C@]3(NC(=O)O[C@H]3C)[C@@](C)(O)[C@@]2(O)COC(=O)c2c(C)cccc2O)c1 [pactamycate]
bioactivity of the cyclic derivative formed by attack of C-7 hydroxyl on the carbamoyl carbonyl [1]: inactive
